Data published in article PMC4585962, “A peptide factor secreted by Staphylococcus pseudintermedius exhibits properties of both bacteriocins and virulence factors” (Scientific Reports, 2015).
Entries after “also recorded” stand apart in the source; their conditions may differ. No end group written: not given here. *: point of attachment. For = O=C*

Assays:
proteinase K = molecular target: T1, proteinase K (Parengyodontium album, UniProt P06873); test: Susceptibility to proteolysis, residual bactericidal activity; type: in vitro ADME; details: 30 μM peptide, 100 mM Tris-HCl pH 8.0 with 5 mM CaCl2, enzyme:peptide 1:50 or 1:10 (w/w), 3 hours, 37 °C; residual activity by radial diffusion assay on B. subtilis; triplicate
T1 construct: purchased A&A Biotechnology
T1 sequence (P06873 106-384): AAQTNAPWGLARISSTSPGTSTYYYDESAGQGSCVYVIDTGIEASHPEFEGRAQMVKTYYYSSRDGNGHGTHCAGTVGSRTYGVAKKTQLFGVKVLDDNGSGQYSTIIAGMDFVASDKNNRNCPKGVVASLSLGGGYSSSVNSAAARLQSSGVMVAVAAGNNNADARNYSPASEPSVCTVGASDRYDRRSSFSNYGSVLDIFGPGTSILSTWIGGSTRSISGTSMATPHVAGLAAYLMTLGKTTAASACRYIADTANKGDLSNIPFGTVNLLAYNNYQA
Protocol: (§1) The bactericidal activity of BacSp222 was also determined using the radial diffusion assay. In TSB agar (1%, w/v) containing a 200× diluted overnight culture of Bacillus subtilis ATCC 6633, wells of 2.4-mm diameter were created by drilling out the agar and filling the hole with 10 μl of the BacSp222 preparation for testing. Following overnight incubation at 37 °C, the bactericidal activity was measured as the area of the inhibition zones.
(§2) The temperature stability of BacSp222 (30 μM final concentration) was determined in PBS. The solution was incubated for 1 or 3 h at 72 °C (typical temperature of pasteurization) or at 100 °C. Independently, a solution of bacteriocin was also subjected to a full cycle of autoclaving (20 min at 121 °C). The susceptibility of BacSp222 to proteolysis was verified using S. aureus staphopain C and V8 peptidase, human neutrophil elastase, human cathepsin G (Biocentrum), bovine TPCK-treated trypsin, pepsin from porcine gastric mucosa (Sigma), and proteinase K (A&A Biotechnology). The dried samples of BacSp222 were dissolved to a final concentration of 30 μM in the following buffers: 100 mM Tris-HCl pH 8.0 containing 5 mM CaCl2 (for trypsin and proteinase K), 100 mM Tris-HCl pH 7.5 containing 5 mM cysteine hydrochloride and 5 mM EDTA (for staphopain C), 100 mM Tris-HCl pH 8.0 (for elastase), 100 mM Tris-HCl pH 7.5 containing 500 mM NaCl (for cathepsin G), 100 mM sodium phosphate pH 7.8 (for V8 peptidase), and 100 mM ammonium acetate pH 4.0 (for pepsin). The peptidases were added at 1:50 or 1:10 (enzyme:BacSp222) ratios by weight, and the mixtures were incubated for 1 or 3 h at 37 °C. The residual activity was determined with the radial diffusion assay using Bacillus subtilis as an indicator strain. All of the above experiments were performed in triplicate.

[1] = molecular target: T2, human neutrophil elastase (Homo sapiens, UniProt P08246); test: as above; type: in vitro ADME; details: 30 μM peptide, 100 mM Tris-HCl pH 8.0, enzyme:peptide 1:50 or 1:10 (w/w), 3 hours, 37 °C; residual activity by radial diffusion assay on B. subtilis; triplicate
T2 construct: purchased Biocentrum
T2 sequence (P08246 30-267): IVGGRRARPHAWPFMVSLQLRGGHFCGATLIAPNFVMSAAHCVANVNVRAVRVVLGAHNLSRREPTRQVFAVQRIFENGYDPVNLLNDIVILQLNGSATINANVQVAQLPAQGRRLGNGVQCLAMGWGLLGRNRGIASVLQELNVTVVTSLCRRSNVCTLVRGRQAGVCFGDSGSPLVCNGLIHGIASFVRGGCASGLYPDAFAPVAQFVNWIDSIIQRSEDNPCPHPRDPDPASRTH
Protocol: as §1, §2

[2] = molecular target: T3, bovine TPCK-treated trypsin (Bos taurus, UniProt P00760); test: as above; type: in vitro ADME; details: 30 μM peptide, 100 mM Tris-HCl pH 8.0 with 5 mM CaCl2, enzyme:peptide 1:50 or 1:10 (w/w), 3 hours, 37 °C; residual activity by radial diffusion assay on B. subtilis; triplicate
T3 construct: purchased Sigma
T3 sequence (P00760 24-246): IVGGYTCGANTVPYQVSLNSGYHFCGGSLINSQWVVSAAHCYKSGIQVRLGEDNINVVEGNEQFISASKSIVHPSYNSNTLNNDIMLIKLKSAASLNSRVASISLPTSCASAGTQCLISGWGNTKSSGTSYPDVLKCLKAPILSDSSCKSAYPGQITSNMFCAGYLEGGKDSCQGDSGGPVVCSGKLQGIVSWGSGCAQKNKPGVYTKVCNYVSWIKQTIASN
Protocol: as §1, §2

FPRL-1 = molecular target: T4, FPRL-1 (Homo sapiens, UniProt P25090); test: Formyl peptide receptor assay, cAMP-GLO, recombinant CHO-K1 cells; type: cell-based; details: 10 pM–5 μM BacSp222, CHO-K1 cells overexpressing FPRL-1, cAMP-GLO; fMLP positive control (data not shown)
T4 construct: host or cells: CHO-K1
T4 sequence (P25090 whole entry): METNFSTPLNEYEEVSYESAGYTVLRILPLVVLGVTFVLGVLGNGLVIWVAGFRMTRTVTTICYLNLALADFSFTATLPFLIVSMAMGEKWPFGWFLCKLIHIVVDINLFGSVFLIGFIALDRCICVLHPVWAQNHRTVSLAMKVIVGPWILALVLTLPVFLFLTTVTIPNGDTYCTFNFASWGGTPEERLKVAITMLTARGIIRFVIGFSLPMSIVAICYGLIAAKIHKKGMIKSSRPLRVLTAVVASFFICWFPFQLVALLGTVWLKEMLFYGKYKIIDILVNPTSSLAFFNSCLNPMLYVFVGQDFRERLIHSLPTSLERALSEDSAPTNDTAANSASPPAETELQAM
Protocol: Activation of the cellular formyl-peptide receptor was assayed using cAMPZen FroZen N-formyl peptide (FPRL1) human recombinant CHO-K1 cells (Perkin-Elmer) and a cAMP-GLO bioluminescent assay (Promega) largely according to the protocols provided by the manufacturers. Formyl-methionyl-leucyl-phenylalanine peptide (fMLP, Sigma) was used as a positive control, and the BacSp222 concentrations tested were 0.01, 0.1, 1.0, 10, 100, 1000, and 5000 nM.

HSF cells = test: Cell membrane integrity, propidium iodide / FDA fluorescence microscopy; type: cell-based, human; details: media contained 0.5 or 15 μM BacSp222 (concentration of these values not stated), three independent experiments ± SD

Substance: For-MAGLLRFLLSKGRALYNWAKSHVGKVWEWLKSGATYEQIKEWIENALGWR [BacSp222]
- activity of BacSp222 after incubation with the enzyme (proteinase K): not significantly reduced
- activity of BacSp222 after incubation with the enzyme [1]: not significantly reduced
- activity of BacSp222 after incubation with the enzyme [2]: not significantly reduced
- stimulation of formyl-peptide receptor (FPRL-1): not able to stimulate; also recorded: did not activate
- PI-positive cells (HSF cells; 0.5 hours of incubation): 39 ± 13.5%
- PI-positive cells (HSF cells; 2 hours of incubation): 74 ± 6.7%
- PI-positive cells (HSF cells; 4 hours of incubation): 97 ± 3.7%
